Structures are written as SMILES.

Our source for the IC50 values is patent publication US9850225B2, “Compounds useful as immunomodulators” (BRISTOL-MYERS SQUIBB COMPANY, priority 2014, dated 2017).

Chain of PD-1/PD-L1 interaction (PD-1-Ig / PD-L1-His) (Q9NZQ7 other isoform, or with tags, fused parts or gaps): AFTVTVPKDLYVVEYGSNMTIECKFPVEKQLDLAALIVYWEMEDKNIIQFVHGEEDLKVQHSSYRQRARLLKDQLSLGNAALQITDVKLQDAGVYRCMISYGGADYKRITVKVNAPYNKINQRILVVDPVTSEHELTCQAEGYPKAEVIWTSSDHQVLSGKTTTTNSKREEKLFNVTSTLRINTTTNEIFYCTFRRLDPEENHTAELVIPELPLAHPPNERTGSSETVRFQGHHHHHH

The first assay deals with PD-1/PD-L1 interaction (PD-1-Ig / PD-L1-His) (Homo sapiens (Human), UniProt Q9NZQ7). Kind of assay: PD-1/PD-L1 Homogenous Time-Resolved Fluorescence (HTRF) binding assay. The note with it: PD-1/PD-L1 HTRF binding assay; numeric value; read-out: Range or IC50. The essentials:
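HTRF detection used 1 nM europium-cryptate anti-Ig and 20 nM APC anti-His. Compounds first saw 10 nM PD-L1-His for 15 min, and 20 nM PD-1-Ig was then added for another 15 min. Buffer was dPBS plus 0.1% BSA and 0.05% Tween-20. All concentrations are final.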
One may read the IC50 as the point on the concentration scale where inhibition reaches its midpoint. With `Cc1c(COc2cc(OCc3cncc(C(=O)O)c3)c(CN[C@@H](CCCN)C(=O)O)cc2Cl)cccc1-c1ccc2c(c1)OCCO2` [Example 2002, (S)-5-((2-(((4-amino-1-carboxybutyl)amino)methyl)-4-chloro-5-((3-(2,3-dihydrobenzo[b][1,4]dioxin-6-yl)-2-methylbenzyl)oxy)phenoxy)methyl)nicotinic acid], the half-inhibitory concentration (IC50) was found to be 0.01 µM.

Staying with this assay, now noted: PD-1/PD-L1 HTRF binding assay; value given as range class; read-out: Range or IC50.
Regarding `CC(=O)NCCNCc1ccc(OCc2cccc(-c3ccccc3)c2C)cc1OCc1cc(F)ccc1F` [Example 1060, N-(2-((2-((2,5-difluorobenzyl)oxy)-4-((2-methyl-[1,1′-biphenyl]-3-yl)methoxy)benzyl)amino)ethyl)acetamide], the IC50 lay within 0.1 to 20 µM. `Cc1cc(CN[C@@](C)(CO)C(=O)O)c(OCc2cncc(C#N)c2)cc1OCc1cccc(-c2ccc3c(c2)OCCO3)c1C` [Example 1286, (S)-2-(2-((5-cyanopyridin-3-yl)methoxy)-4-(3-(2,3-dihydrobenzo[b][1,4]dioxin-6-yl)-2-methylbenzyloxy)-5-methylbenzylamino)-3-hydroxy-2-methylpropanoic acid]: the IC50 is 0.0006 to 0.01 µM. Still for that read-out and setting: then `CC(=O)NCCNCc1cc(C)c(OCc2cccc(-c3ccc4c(c3)OCCO4)c2C)cc1OCc1cccnc1` [Example 1276, N-(2-((4-((3-(2,3-dihydrobenzo[b][1,4]dioxin-6-yl)-2-methylbenzyl)oxy)-5-methyl-2-(pyridin-3-ylmethoxy)benzyl)amino)ethyl)acetamide], with 0.0006 to 0.01 µM.

`Cc1c(COc2cc(OCc3cccc(C#N)c3)c(CNC(Cc3ccc(O)cc3)C(=O)O)cc2Cl)cccc1-c1ccc2c(c1)OCCO2` (centres unmarked) [Example 1187, 2-((5-chloro-2-((3-cyanobenzyl)oxy)-4-((3-(2,3-dihydrobenzo[b][1,4]dioxin-6-yl)-2-methylbenzyl)oxy)benzyl)amino)-3-(4-hydroxyphenyl)propanoic acid]: the concentration for half-maximal inhibition (IC50) was 0.01 to 0.1 µM. Take `Cc1c(COc2ccc(CNC(CO)(C(=O)O)C(C)C)c(OCc3cccc(C#N)c3)c2)cccc1-c1ccccc1` (centres unmarked) [Example 1020, 2-((2-((3-cyanobenzyl)oxy)-4-((2-methyl-[1,1′-biphenyl]-3-yl)methoxy)benzyl)amino)-2-(hydroxymethyl)-3-methylbutanoic acid]: the IC50 was in the range of 0.01 to 0.1 µM. Same read-out and setting: as for `CC(=O)NCCNCc1ccc(OCc2cccc(-c3ccccc3)c2C)cc1OCc1ccc(F)c(Cl)c1` [Example 1110, N-(2-((2-((3-chloro-4-fluorobenzyl)oxy)-4-((2-methyl-[1,1′-biphenyl]-3-yl)methoxy)benzyl)amino)ethyl)acetamide], the figure is 0.1 to 20 µM. Take `CC(=O)NCCNCc1ccc(OCc2cccc(-c3ccc4c(c3)OCCO4)c2C)c(Cl)c1OCc1cccc(C#N)c1` [Example 1237, N-(2-((3-chloro-2-((3-cyanobenzyl)oxy)-4-((3-(2,3-dihydrobenzo[b][1,4]dioxin-6-yl)-2-methylbenzyl)oxy)benzyl)amino)ethyl)acetamide]: the IC50 lay within 0.1 to 20 µM. The same measure, in the same setting: as for `COc1cc(OCc2cccc(-c3ccc4c(c3)OCCO4)c2C)cc(OCc2cccc(C#N)c2)c1CNC[C@@H](O)CC(=O)O` [Example 1140, (S)-4-((2-((3-cyanobenzyl)oxy)-4-((3-(2,3-dihydrobenzo[b][1,4]dioxin-6-yl)-2-methylbenzyl)oxy)-6-methoxybenzyl)amino)-3-hydroxybutanoic acid], the figure is 0.0006 to 0.01 µM; as for `Cc1c(COc2ccc(CN[C@H](C(=O)O)[C@H](C)O)c(OCc3cccc(C#N)c3)c2)cccc1-c1ccccc1` [Example 1012, (2S,3S)-2-((2-((3-cyanobenzyl)oxy)-4-((2-methyl-[1,1′-biphenyl]-3-yl)methoxy)benzyl)amino)-3-hydroxybutanoic acid], 0.01 to 0.1 µM; as for `Cc1cc(CN[C@](C)(CO)C(=O)O)c(OCc2cncc(C#N)c2)cc1OCc1cccc(-c2ccc3c(c2)OCCO3)c1C#N` [Example 1311, (R)-2-(4-(2-cyano-3-(2,3-dihydrobenzo[b][1,4]dioxin-6-yl)benzyloxy)-2-((5-cyanopyridin-3-yl)methoxy)-5-methylbenzylamino)-3-hydroxy-2-methylpropanoic acid], 0.0006 to 0.01 µM. Same read-out and setting: then `Cc1cc(CNC[C@@H](O)CC(=O)O)c(OCc2cncc(C#N)c2)cc1OCc1cccc(-c2ccc3c(c2)OCCO3)c1C` [Example 1283, (S)-4-(2-((5-cyanopyridin-3-yl)methoxy)-4-(3-(2,3-dihydrobenzo[b][1,4]dioxin-6-yl)-2-methylbenzyloxy)-5-methylbenzylamino)-3-hydroxybutanoic acid], with 0.0006 to 0.01 µM; and `N#Cc1cccc(COc2cc(OCc3cccc(-c4ccc5c(c4)OCCO5)c3Cl)ccc2CN[C@H](CO)C(=O)O)c1` [Example 1146, (R)-2-(4-(2-chloro-3-(2,3-dihydrobenzo[b][1,4]dioxin-6-yl)benzyloxy)-2-(3-cyanobenzyloxy)benzylamino)-3-hydroxypropanoic acid], with 0.0006 to 0.01 µM; and `Cc1cc(CN2CCCC[C@H]2C(=O)O)c(OCc2cncc(C#N)c2)cc1OCc1cccc(-c2ccc3c(c2)OCCO3)c1C` [Example 1285, (S)-1-(2-((5-cyanopyridin-3-yl)methoxy)-4-(3-(2,3-dihydrobenzo[b][1,4]dioxin-6-yl)-2-methylbenzyloxy)-5-methylbenzyl)piperidine-2-carboxylic acid], with 0.0006 to 0.01 µM. On the same count and under the same terms, then `Cc1cc(CN2CCCC[C@H]2C(=O)O)c(OCc2cncc(C#N)c2)cc1OCc1cccc(-c2ccc3c(c2)OCCO3)c1C#N` [Example 1309, (S)-1-(4-(2-cyano-3-(2,3-dihydrobenzo[b][1,4]dioxin-6-yl)benzyloxy)-2-((5-cyanopyridin-3-yl)methoxy)-5-methylbenzyl)piperidine-2-carboxylic acid], with 0.0006 to 0.01 µM. As to `Cc1c(COc2cc(OCc3cccc(C#N)c3)c(CNC(C(=O)O)c3c[nH]c4ccccc34)cc2Cl)cccc1-c1ccc2c(c1)OCCO2` (centres unmarked) [Example 1211, 2-((5-chloro-2-((3-cyanobenzyl)oxy)-4-((3-(2,3-dihydrobenzo[b][1,4]dioxin-6-yl)-2-methylbenzyl)oxy)benzyl)amino)-2-(1H-indol-3-yl)acetic acid], the IC50 is 0.01 to 0.1 µM. The same measure, in the same setting: as for `Cc1c(COc2cc(OCc3cncc(C#N)c3)c(CN3CC[C@@H](O)C[C@H]3C(=O)O)cc2Cl)cccc1-c1ccc2c(c1)OCCO2` [Example 2008, (2S,4R)-1-(5-chloro-2-((5-cyanopyridin-3-yl)methoxy)-4-((3-(2,3-dihydrobenzo[b][1,4]dioxin-6-yl)-2-methylbenzyl)oxy)benzyl)-4-hydroxypiperidine-2-carboxylic acid], the figure is 0.0006 to 0.01 µM; as for `Cc1c(COc2cc(OCc3cccc(C#N)c3)c(CN[C@@](C)(CO)C(=O)O)cc2Cl)cccc1-c1ccc2c(c1)OCCO2` [Example 1245, (S)-2-((5-chloro-2-((3-cyanobenzyl)oxy)-4-((3-(2,3-dihydrobenzo[b][1,4]dioxin-6-yl)-2-methylbenzyl)oxy)benzyl)amino)-3-hydroxy-2-methylpropanoic acid], 0.0006 to 0.01 µM. Same read-out and setting: as for `Cc1c(COc2cc(OCc3cccc(C#N)c3)c(CN3CCCC[C@@H]3C(=O)O)cc2Cl)cccc1-c1ccc2c(c1)OCCO2` [Example 1198, (R)-1-(5-chloro-2-((3-cyanobenzyl)oxy)-4-((3-(2,3-dihydrobenzo[b][1,4]dioxin-6-yl)-2-methylbenzyl)oxy)benzyl)piperidine-2-carboxylic acid], the figure is 0.0006 to 0.01 µM; as for `Cc1c(COc2ccc(CN[C@](C)(CO)C(=O)O)c(OCc3cccc(C#N)c3)c2)cccc1-c1ccccc1` [Example 1023, (R)-2-((2-((3-cyanobenzyl)oxy)-4-((2-methyl-[1,1′-biphenyl]-3-yl)methoxy)benzyl)amino)-3-hydroxy-2-methylpropanoic acid], 0.0006 to 0.01 µM; as for `CC(=O)NCCNCc1ccc(OCc2cccc(-c3ccccc3)c2C)cc1OCc1cccc(F)c1F` [Example 1071, N-(2-((2-((2,3-difluorobenzyl)oxy)-4-((2-methyl-[1,1′-biphenyl]-3-yl)methoxy)benzyl)amino)ethyl)acetamide], 0.1 to 20 µM. Regarding `CC(=O)NCCNCc1ccc(OCc2cccc(-c3ccccc3)c2C)cc1OCCCO` [Example 1035, N-(2-((2-(3-hydroxypropoxy)-4-((2-methyl-[1,1′-biphenyl]-3-yl)methoxy)benzyl)amino)ethyl)acetamide], the IC50 lay within 0.1 to 20 µM. Still for that read-out and setting: then `CC(=O)NCCNCc1c(C)cc(OCc2cccc(-c3ccc4c(c3)OCCO4)c2C)cc1OCc1cncc(C#N)c1` [Example 1005, N-(2-(2-((5-cyanopyridin-3-yl)methoxy)-4-(3-(2,3-dihydrobenzo[b][1,4]dioxin-6-yl)-2-methylbenzyloxy)-6-methylbenzylamino)ethyl)acetamide], with 0.0006 to 0.01 µM. Still for that read-out and setting: then `CC(=O)Nc1cc(COc2cc(OCc3cccc(-c4ccc5c(c4)OCCO5)c3C)c(Cl)cc2C=O)ccn1` [Example 3010, N-(4-((4-chloro-5-((3-(2,3-dihydrobenzo[b][1,4]dioxin-6-yl)-2-methylbenzyl)oxy)-2-formylphenoxy)methyl)pyridin-2-yl)acetamide], with 0.1 to 20 µM; and `COc1cc(COc2cc(OCc3cccc(-c4ccc5c(c4)OCCO5)c3C)c(Cl)cc2CN[C@@](C)(CO)C(=O)O)ccn1` [Example 3015, (2S)-2-{[(5-chloro-4-{[3-(2,3-dihydro-1,4-benzodioxin-6-yl)-2-methylphenyl]methoxy}-2-[(2-methoxypyridin-4-yl)methoxy]phenyl)methyl]amino}-3-hydroxy-2-methylpropanoic acid], with 0.0006 to 0.01 µM; and `CC(=O)NCCNCc1ccc(OCc2cccc(-c3ccccc3)c2C)cc1OCc1cccc(C(=O)c2ccccc2)c1` [Example 1073, N-(2-((2-((3-benzoylbenzyl)oxy)-4-((2-methyl-[1,1′-biphenyl]-3-yl)methoxy)benzyl)amino)ethyl)acetamide], with 0.1 to 20 µM.
